In patent publication US7138361B2, “Herbicidal heterocycles” (E. I. du Pont de Nemours and Company, priority 2000, dated 2006):

Legend:
Format in all cases: in vivo
[1] = tested on: crabgrass (Digitaria sanguinalis); assay: Test B postemergence; settings: 13 to 15 days
Description: (§1) Seeds selected from barnyardgrass (Echinochloa crus-galli), Surinam grass (Brachiaria decumbens), cocklebur (Xanthium strumarium), corn (Zea mays), crabgrass (Digitaria sanguinalis), giant foxtail (Setaria faberii), lambsquarters (Chenopodium album), morning glory (Ipomoea hederacea), pigweed (Amaranthus retroflexus), rice (Oryza saliva) and velvetleaf (Abutilon theophrasti) were planted and treated preemergence with test chemicals formulated in a non-phytotoxic solvent mixture which included a surfactant.
(§2) At the same time, plants selected from these crop and weed species and also blackgrass (Alopecurus myosuroides), wheat (Triticum aestivum) and wild oat (Avena fatua) were treated with postemergence applications of test chemicals formulated in the same manner. Plants ranged in height from 2 to 18 cm (1- to 4-leaf stage) for postemergence treatments. Plant species in the flooded paddy test consisted of rice (Oryza saliva), smallflower flatsedge (Cyperus difformis), duck salad (Heteranthera limosa) and barnyardgrass (Echinochloa crus-galli) grown to the 2-leaf stage for testing. Treated plants and controls were maintained in a greenhouse for 13 to 15 days, after which time all species were compared to controls and visually evaluated. Plant response ratings, summarized in Table B, are based on a scale of 0 to 100 where 0 is no effect and 100 is complete control. A dash (-) response means no test result.

[2] = tested on: morning glory (Ipomoea hederacea); assay: Test B postemergence; settings: Rate 500 g/ha, scale 0 to 100, 0 is no effect, 100 is complete control, 13 to 15 days
Description: as §1, §2

[3] = tested on: Surinam grass (Brachiaria decumbens); assay: Test B postemergence; settings: 13 to 15 days
Description: as §1, §2

[4] = tested on: barnyardgrass (Echinochloa crus-galli); assay: Test B postemergence; settings: 13 to 15 days
Description: as §1, §2

[5] = tested on: velvetleaf (Abutilon theophrasti); assay: Test B postemergence; settings: Rate 500 g/ha, scale 0 to 100, 0 is no effect, 100 is complete control, 13 to 15 days
Description: as §1, §2

[6] = tested on: wheat (Triticum aestivum); assay: Test B postemergence; settings: Rate 500 g/ha, scale 0 to 100, 0 is no effect, 100 is complete control, 13 to 15 days
Description: as §1, §2

corn (Zea mays) [7] = assay: Test B postemergence; settings: 13 to 15 days
Description: as §1, §2

wild oat (Avena fatua) = assay: Test B postemergence; settings: Rate 500 g/ha, scale 0 to 100, 0 is no effect, 100 is complete control, 13 to 15 days
Description: as §1, §2

[8] = tested on: blackgrass (Alopecurus myosuroides); assay: Test B postemergence; settings: 13 to 15 days
Description: as §1, §2

[9] = tested on: pigweed (Amaranthus retroflexus); assay: Test B postemergence; settings: Rate 500 g/ha, scale 0 to 100, 0 is no effect, 100 is complete control, 13 to 15 days
Description: as §1, §2

[10] = tested on: lambsquarters (Chenopodium album); assay: Test B postemergence; settings: Rate 500 g/ha, scale 0 to 100, 0 is no effect, 100 is complete control, 13 to 15 days
Description: as §1, §2

[11] = tested on: giant foxtail (Setaria faberii); assay: Test B postemergence; settings: 13 to 15 days
Description: as §1, §2

[12] = tested on: cocklebur (Xanthium strumarium); assay: Test B preemergence
Description: as §1, §2

[13] = tested on: crabgrass (Digitaria sanguinalis); assay: Test B preemergence
Description: as §1, §2

[14] = tested on: morning glory (Ipomoea hederacea); assay: Test B preemergence
Description: as §1, §2

[15] = tested on: Surinam grass (Brachiaria decumbens); assay: Test B preemergence
Description: as §1, §2

[16] = tested on: barnyardgrass (Echinochloa crus-galli); assay: Test B preemergence
Description: as §1, §2

[17] = tested on: velvetleaf (Abutilon theophrasti); assay: Test B preemergence
Description: as §1, §2

corn (Zea mays) [18] = assay: Test B preemergence
Description: as §1, §2

rice (Oryza saliva) [19] = assay: Test B preemergence
Description: as §1, §2

[20] = tested on: pigweed (Amaranthus retroflexus); assay: Test B preemergence
Description: as §1, §2

[21] = tested on: lambsquarters (Chenopodium album); assay: Test B preemergence
Description: as §1, §2

[22] = tested on: giant foxtail (Setaria faberii); assay: Test B preemergence
Description: as §1, §2

[23] = tested on: smallflower flatsedge (Cyperus difformis); assay: Test C flooded paddy test; settings: for Flatsedge plant response rating: Flooded Paddy, scale 0 to 100, 0 no effect, 100 complete control; for Plant response rating, Flatsedge: flooded paddy test, scale 0 to 100 (0 no effect, 100 complete control)
Procedure: (§3) At the same time, plants selected from these crop and weed species and also winter barley (Hordeum vulgare), blackgrass (Alopecurus myosuroides), canary grass (Phalaris minor), chickweed (Stellaria media), downy brome (Bromus tectorum), green foxtail (Setaria viridis), Italian ryegrass (Lolium multiflorum), wheat (Triticum aestivum), wild oat (Avena fatua) and windgrass (Apera spica-venti) were treated with postemergence applications of some of the test chemicals formulated in the same manner. Plants ranged in height from 2 to 18 cm (1- to 4-leaf stage) for postemergence treatments. Plant species in the flooded paddy test consisted of rice (Oryza saliva), smallflower flatsedge (Cyperus difformis), duck salad (Heteranthera limosa) and barnyardgrass (Echinochloa crus-galli) grown to the 2-leaf stage for testing. Treated plants and controls were maintained in a greenhouse for 12 to 14 days, after which time all species were compared to controls and visually evaluated. Plant response ratings, summarized in Table C, are based on a scale of 0 to 100 where 0 is no effect and 100 is complete control. A dash (-) response means no test result.

[24] = tested on: barnyardgrass (Echinochloa crus-galli); assay: Test C flooded paddy test; settings: for Barnyardgrass plant response rating: Flooded Paddy, scale 0 to 100, 0 no effect, 100 complete control; for Plant response rating, Barnyardgrass: flooded paddy test, scale 0 to 100 (0 no effect, 100 complete control)
Procedure: as §3

rice (Oryza saliva) [25] = assay: Test C flooded paddy test; settings: for Rice plant response rating: Flooded Paddy, scale 0 to 100, 0 no effect, 100 complete control; for Plant response rating, Rice: flooded paddy test, scale 0 to 100 (0 no effect, 100 complete control)
Procedure: as §3

[26] = tested on: duck salad (Heteranthera limosa); assay: Test C flooded paddy test; settings: for Ducksalad plant response rating: Flooded Paddy, scale 0 to 100, 0 no effect, 100 complete control; for Plant response rating, Ducksalad: flooded paddy test, scale 0 to 100 (0 no effect, 100 complete control)
Procedure: as §3

[27] = Rate 125 g/ha, scale 0 (no effect) to 100 (complete control)
[28] = Rate 500 g/ha, scale 0 to 100, 0 is no effect, 100 is complete control
[29] = Preemergence, Rate 500 g/ha, scale 0 to 100, 0 no effect, 100 complete control
[30] = preemergence, Rate 125 g/ha, scale of 0 to 100 where 0 is no effect and 100 is complete control, 13 to 15 days

CC(C)(C)c1ccn(C2CCN(c3cccc(S(C)(=O)=O)c3)C2=O)n1 (stereo not drawn) [Compound 102]
Plant response rating, Crabgrass [1, 27]: 0
Plant response rating, Crabgrass [1, 28]: 0
Plant response rating, Morningglory [2]: 0
Plant response rating, Surinam grass [3, 27]: 0
Plant response rating, Surinam grass [3, 28]: 0
Plant response rating, Barnyardgrass [4, 27]: 0
Plant response rating, Barnyardgrass [4, 28]: 0
Plant response rating, Velvetleaf [5]: 0
Plant response rating, Wheat [6]: 0
Plant response rating, Corn (corn (Zea mays) [7]; [27]): 0
Plant response rating, Corn (corn (Zea mays) [7]; [28]): 0
Plant response rating, Wild Oat (wild oat (Avena fatua)): 0
Plant response rating, Blackgrass [8, 27]: 0
Plant response rating, Blackgrass [8, 28]: 0
Plant response rating, Pigweed [9]: 0
Plant response rating, Lambsquarters [10]: 0
Plant response rating, Foxtail, Giant [11, 27]: 0
Plant response rating, Foxtail, Giant [11, 28]: 0
Plant response rating, Cocklebur [12, 29]: 0
Plant response rating, Cocklebur [12, 30]: 0
Plant response rating, Crabgrass [13, 29]: 90
Plant response rating, Crabgrass [13, 30]: 0
Plant response rating, Morningglory [14, 29]: 0
Plant response rating, Morningglory [14, 30]: 0
Plant response rating, Surinam grass [15, 29]: 0
Plant response rating, Surinam grass [15, 30]: 0
Plant response rating, Barnyardgrass [16, 29]: 0
Plant response rating, Barnyardgrass [16, 30]: 0
Plant response rating, Velvetleaf [17, 29]: 0
Plant response rating, Velvetleaf [17, 30]: 0
Plant response rating, Corn (corn (Zea mays) [18]; [29]): 0
Plant response rating, Corn (corn (Zea mays) [18]; [30]): 0
Plant response rating, Rice (rice (Oryza saliva) [19]; [29]): 0
Plant response rating, Rice (rice (Oryza saliva) [19]; [30]): 0
Plant response rating, Pigweed [20, 29]: 0
Plant response rating, Pigweed [20, 30]: 0
Plant response rating, Lambsquarters [21, 29]: 0
Plant response rating, Lambsquarters [21, 30]: 0
Plant response rating, Foxtail, Giant [22, 29]: 0
Plant response rating, Foxtail, Giant [22, 30]: 0
Flatsedge plant response rating ([23]; Rate 250 g/ha): 30
Flatsedge plant response rating ([23]; Rate 500 g/ha): 60
Plant response rating, Flatsedge ([23]; Rate 62 g/ha): 0
Plant response rating, Flatsedge ([23]; Rate 125 g/ha): 30
Barnyardgrass plant response rating ([24]; Rate 250 g/ha): 0
Barnyardgrass plant response rating ([24]; Rate 500 g/ha): 0
Plant response rating, Barnyardgrass ([24]; Rate 62 g/ha): 0
Plant response rating, Barnyardgrass ([24]; Rate 125 g/ha): 0
Rice plant response rating (rice (Oryza saliva) [25]; Rate 250 g/ha): 0
Rice plant response rating (rice (Oryza saliva) [25]; Rate 500 g/ha): 0
Plant response rating, Rice (rice (Oryza saliva) [25]; Rate 62 g/ha): 0
Plant response rating, Rice (rice (Oryza saliva) [25]; Rate 125 g/ha): 0
Ducksalad plant response rating ([26]; Rate 250 g/ha): 0
Ducksalad plant response rating ([26]; Rate 500 g/ha): 0
Plant response rating, Ducksalad ([26]; Rate 62 g/ha): 0
Plant response rating, Ducksalad ([26]; Rate 125 g/ha): 0

CCCCC(C)c1ccn(C2SCN(c3cccc(C(F)(F)F)c3)C2=O)n1 (stereo not drawn) [Compound 103]
Plant response rating, Crabgrass [1, 27]: 0
Plant response rating, Crabgrass [1, 28]: 0
Plant response rating, Morningglory [2]: 0
Plant response rating, Surinam grass [3, 27]: 0
Plant response rating, Surinam grass [3, 28]: 0
Plant response rating, Barnyardgrass [4, 27]: 0
Plant response rating, Barnyardgrass [4, 28]: 0
Plant response rating, Velvetleaf [5]: 0
Plant response rating, Wheat [6]: 0
Plant response rating, Corn (corn (Zea mays) [7]; [27]): 0
Plant response rating, Corn (corn (Zea mays) [7]; [28]): 0
Plant response rating, Wild Oat (wild oat (Avena fatua)): 0
Plant response rating, Blackgrass [8, 27]: 0
Plant response rating, Blackgrass [8, 28]: 0
Plant response rating, Pigweed [9]: 0
Plant response rating, Lambsquarters [10]: 50
Plant response rating, Foxtail, Giant [11, 27]: 0
Plant response rating, Foxtail, Giant [11, 28]: 0
Plant response rating, Cocklebur [12, 29]: 0
Plant response rating, Cocklebur [12, 30]: 0
Plant response rating, Crabgrass [13, 29]: 60
Plant response rating, Crabgrass [13, 30]: 0
Plant response rating, Morningglory [14, 29]: 0
Plant response rating, Morningglory [14, 30]: 0
Plant response rating, Surinam grass [15, 29]: 0
Plant response rating, Surinam grass [15, 30]: 0
Plant response rating, Barnyardgrass [16, 29]: 0
Plant response rating, Barnyardgrass [16, 30]: 0
Plant response rating, Velvetleaf [17, 29]: 0
Plant response rating, Velvetleaf [17, 30]: 0
Plant response rating, Corn (corn (Zea mays) [18]; [29]): 0
Plant response rating, Corn (corn (Zea mays) [18]; [30]): 0
Plant response rating, Rice (rice (Oryza saliva) [19]; [29]): 0
Plant response rating, Rice (rice (Oryza saliva) [19]; [30]): 0
Plant response rating, Pigweed [20, 29]: 0
Plant response rating, Pigweed [20, 30]: 0
Plant response rating, Lambsquarters [21, 29]: 100
Plant response rating, Lambsquarters [21, 30]: 100
Plant response rating, Foxtail, Giant [22, 29]: 0
Plant response rating, Foxtail, Giant [22, 30]: 0
Flatsedge plant response rating ([23]; Rate 250 g/ha): 100
Flatsedge plant response rating ([23]; Rate 500 g/ha): 100
Plant response rating, Flatsedge ([23]; Rate 62 g/ha): 0
Plant response rating, Flatsedge ([23]; Rate 125 g/ha): 80
Barnyardgrass plant response rating ([24]; Rate 250 g/ha): 20
Barnyardgrass plant response rating ([24]; Rate 500 g/ha): 40
Plant response rating, Barnyardgrass ([24]; Rate 62 g/ha): 0
Plant response rating, Barnyardgrass ([24]; Rate 125 g/ha): 0
Rice plant response rating (rice (Oryza saliva) [25]; Rate 250 g/ha): 20
Rice plant response rating (rice (Oryza saliva) [25]; Rate 500 g/ha): 20
Plant response rating, Rice (rice (Oryza saliva) [25]; Rate 62 g/ha): 0
Ducksalad plant response rating ([26]; Rate 250 g/ha): 0
Ducksalad plant response rating ([26]; Rate 500 g/ha): 90
Plant response rating, Ducksalad ([26]; Rate 62 g/ha): 0
Plant response rating, Ducksalad ([26]; Rate 125 g/ha): 0
